# According to publication PMC8516330 (The AAPS Journal, 2021):
# Assay: Encapsulation efficiency of liposomes and lipodisks by RP-HPLC
# Settings: for Change of EE in lipodisks compared with liposomes: curcumin D/L 0.01, acyclovir D/L 0.03; for EE% (encapsulation efficiency), D/L 0.1: D/L ratio 0.1 (w/w), N = 3
structure (smiles),measurement,setting,value
"Nc1nc2c(ncn2COCCO)c(=O)[nH]1 [Acyclovir, acyclovir]",Change of EE in lipodisks compared with liposomes,,did not significantly increase
"COc1cc(/C=C/C(=O)CC(=O)/C=C/c2ccc(O)c(OC)c2)ccc1O [Curcumin, curcumin]","EE% (encapsulation efficiency), D/L 0.1",[…],11.41%
same,Change of EE in lipodisks compared with liposomes,,remained constant
same,"Encapsulation efficiency, lipodisks D/L 0.01",D/L ratio 0.01,~ 82.4%
same,"Encapsulation efficiency, liposomes D/L 0.01","liposomes, D/L ratio 0.01",~ 82.4%
"C[C@@H]1C[C@H]2[C@@H]3CCC4=CC(=O)C=C[C@]4(C)[C@@]3(F)[C@@H](O)C[C@]2(C)[C@@]1(O)C(=O)CO [Dexamethasone, dexamethasone]","Encapsulation efficiency, liposomes D/L 0.03","[…], D/L ratio 0.03, passive loading",2.3%
same,"EE% (encapsulation efficiency), D/L 0.1",[…],1.49%
same,"Encapsulation efficiency, lipodisks D/L 0.03","lipodisks (62% DSPE-PEG2000), D/L ratio 0.03",9.7%
same,"Encapsulation efficiency, lipodisks D/L 0.01",D/L ratio 0.01,27.46%
